# Laboratory results reported in patent US7049342B2, “Substituted phenylpropionic acid derivatives” (Kyorin Pharmaceutical Co., Ltd., priority 2000, dated 2006).
# Tests used:
# human type PPARα = target: T1, human type PPARα (Homo sapiens, UniProt Q07869); test: Test of transcriptional activation on peroxisome proliferator-activated receptor α; assay type: cell-based; settings: CHO cells cotransfected with yeast DNA-binding domain/human PPARα ligand-binding domain fusion receptor plasmid, reporter plasmid and Renilla luciferase internal standard; luciferase measured after 24 hours; read-out: Transcription-activating function EC50
# T1 construct: expressed in transfected cells; host or cells: CHO cells
# T1 sequence (Q07869 239-466 limits assumed): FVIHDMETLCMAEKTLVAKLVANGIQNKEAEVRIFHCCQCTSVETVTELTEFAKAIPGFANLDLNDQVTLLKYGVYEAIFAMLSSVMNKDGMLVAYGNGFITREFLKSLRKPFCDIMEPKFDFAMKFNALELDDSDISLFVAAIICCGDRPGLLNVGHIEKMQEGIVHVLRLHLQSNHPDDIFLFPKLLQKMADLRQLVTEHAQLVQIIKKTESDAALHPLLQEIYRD
# Text: Test of Transcriptional Activation on Peroxisome Proliferator-Activated Receptor α
# To CHO cells cultured in a Dulbecco-modified Eagle's medium containing 10% delipid fetal calf serum (FCS/DMEM), receptor plasmid that expresses fused protein of DNA-binding domain being transcription factor of yeast with ligand-binding domain of human type PPARα (Biochemistry, 1993, 32, 5598), its reporter plasmid (STRATAGENE Corp.) and luciferase plasmid of Renilla (Promega Corp.) as internal standard were cotransfected with lipofectamine in the serum-free state. Thereafter, testing compound was added in the 10% SFCS/DMEM and both luciferase activities were measured after 24 hours, which were corrected with internal standard.
Compound,melting point [°C],EC50 (human type PPARα) [nM]
"CCC(Cc1ccc(OC)c(OCCc2ccc(C(F)(F)F)cc2)c1)C(=O)O (stereo not shown) [Example 120, 2-Ethyl-3-[4-methoxy-3-[2-[4-(trifluoromethyl)phenyl]ethoxy]phenyl]propanoic acid]",64 to 66,–
"CCC(Cc1ccc(OC)c(CC(=O)Nc2ccc(C(F)(F)F)cc2)c1)C(=O)O (single isomer, unassigned; (-)) [Example 121 (−), (−)-2-ethyl-3-[4-methoxy-3-[[N-[4-(trifluoromethyl)phenyl]carbamoyl]methyl]-phenyl]propanoic acid]",121 to 123,–
COc1ccc(CCC(=O)O)cc1NC(=O)Cc1ccc(-c2ccccc2)cc1 [Example 44],177,130
"COc1ccc(CC(OC)C(=O)O)cc1NC(=O)Cc1ccc(C(F)(F)F)cc1 (stereo not shown) [Example 39, 2-Methoxy-3-[4-methoxy-3-[2-[4-(trifluoromethyl)phenyl]acetylamino]phenyl]propanoic acid]",124 to 125,–
COc1ccc(CC(OC)C(=O)O)cc1NC(=O)Cc1ccc(Oc2ccccc2)cc1 (stereo not shown) [Example 70],–,160
"CCC(Cc1ccc(OC)c(CC(=O)Nc2ccc(C(F)(F)F)cc2)c1)C(=O)O (stereo not shown) [Example 88, 2-Ethyl-3-[4-methoxy-3-[[N-[4-(trifluoromethyl)phenyl]carbamoyl]methyl]phenyl]propanoic acid]",136 to 137,15
"CCCCC/C=C\C/C=C\C=C\[C@@H](O)C/C=C\CCCC(=O)O [(8S) HETE, reference compound]",–,1300
CCC(Cc1ccc(OC)c(NC(=O)Cc2ccc(OCc3ccccc3)cc2)c1)C(=O)O (stereo not shown) [Example 46],–,50
